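Five concentrations, 48 hours, 96-well plates. GI50: concentration for 50% inhibition of growth.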 Calls of active or inactive are those of the source. Rule as the data show it: active = GI50 up to about 1.1 µM and inactive = higher.
Key:
Assay in all cases: NCI anticancer screen, dose series, 48 h
A549 = test system: A549
RPMI-8226 = test system: RPMI-8226
HOP-62 = test system: HOP-62
SK-MEL-5 = test system: SK-MEL-5
MOLT-4 = test system: MOLT-4
EKVX = test system: EKVX
M14 = test system: M14
OVCAR-3 = test system: OVCAR-3
HL-60 = test system: HL-60
HCC 2998 = test system: HCC 2998
DLD-1 = test system: DLD-1
NCI-H226 = test system: NCI-H226
SN12C = test system: SN12C
IGROV-1 = test system: IGROV-1
HCT-116 = test system: HCT-116
NCI-H522 = test system: NCI-H522
MDA-MB-231 = test system: MDA-MB-231
T47D = test system: T47D
Hs-578T = test system: Hs-578T
PC-3 = test system: PC-3

Structure (SMILES) | GI50 (A549) | GI50 (RPMI-8226) | GI50 (HOP-62) | GI50 (SK-MEL-5) | GI50 (MOLT-4) | GI50 (EKVX) | GI50 (M14) | GI50 (OVCAR-3) | GI50 (HL-60) | GI50 (HCC 2998) | GI50 (DLD-1) | GI50 (NCI-H226) | GI50 (SN12C) | GI50 (IGROV-1) | GI50 (HCT-116) | GI50 (NCI-H522) | GI50 (MDA-MB-231) | GI50 (T47D) | GI50 (Hs-578T) | GI50 (PC-3)
CCOC(=O)Nn1c(C)cc(C(=O)OC)c1C | > 100 µM (inactive) | > 100 µM (inactive) | > 100 µM (inactive) | > 100 µM (inactive) | > 100 µM (inactive) | > 100 µM (inactive) | > 100 µM (inactive) | > 100 µM (inactive) | > 100 µM (inactive) | > 100 µM (inactive) | > 100 µM (inactive) | > 100 µM (inactive) | > 100 µM (inactive) | > 100 µM (inactive) | > 100 µM (inactive) | > 100 µM (inactive) | – | – | – | –
BrCC[N+]12CCCN1CCC2 | 41.1 µM (inactive) | 1.53 µM (inactive) | > 47.3 µM (inactive) | 18 µM (inactive) | 3.43 µM (inactive) | 21.6 µM (inactive) | 11 µM (inactive) | 13.9 µM (inactive) | 2.9 µM (inactive) | 22.3 µM (inactive) | 4.38 µM (inactive) | 33.2 µM (inactive) | 14.7 µM (inactive) | 22 µM (inactive) | 5.66 µM (inactive) | 0.664 µM (active) | 17.5 µM (inactive) | 9.93 µM (inactive) | 0.692 µM (active) | 17.1 µM (inactive)
Cc1ccc(NC(=O)C(=O)C2C(=O)NC(=O)NC2=O)cc1C | > 100 µM (inactive) | > 100 µM (inactive) | > 100 µM (inactive) | > 100 µM (inactive) | > 100 µM (inactive) | > 100 µM (inactive) | > 100 µM (inactive) | > 100 µM (inactive) | > 100 µM (inactive) | > 100 µM (inactive) | > 100 µM (inactive) | > 100 µM (inactive) | > 100 µM (inactive) | > 100 µM (inactive) | > 100 µM (inactive) | > 100 µM (inactive) | – | – | – | –
O=C(O)CCC(=O)N1C/C(=C\c2ccccc2)C(=O)/C(=C/c2ccccc2)C1 | 19.1 µM (inactive) | 2.42 µM (inactive) | 16.8 µM (inactive) | 2.65 µM (inactive) | 2.34 µM (inactive) | 5.02 µM (inactive) | 2.32 µM (inactive) | 2.41 µM (inactive) | 2.21 µM (inactive) | 2.17 µM (inactive) | 2.32 µM (inactive) | 18 µM (inactive) | 1.93 µM (inactive) | 3.45 µM (inactive) | 1.75 µM (inactive) | 1.07 µM (active) | – | – | – | –
O=C(/C=C/c1c(O)ccc2ccccc12)c1ccccc1 | > 100 µM (inactive) | 27 µM (inactive) | > 100 µM (inactive) | > 100 µM (inactive) | > 100 µM (inactive) | > 100 µM (inactive) | > 100 µM (inactive) | > 100 µM (inactive) | 35.7 µM (inactive) | > 100 µM (inactive) | 85.7 µM (inactive) | > 100 µM (inactive) | > 100 µM (inactive) | > 100 µM (inactive) | > 100 µM (inactive) | > 100 µM (inactive) | – | – | – | –
C/C(=N\NC(=N)N)C(CN(C)C)C(c1ccccc1)c1c(O)c2ccccc2oc1=O (stereo not given) | > 100 µM (inactive) | > 100 µM (inactive) | > 26.6 µM (inactive) | > 100 µM (inactive) | > 100 µM (inactive) | > 100 µM (inactive) | > 100 µM (inactive) | > 100 µM (inactive) | > 100 µM (inactive) | > 100 µM (inactive) | > 100 µM (inactive) | > 100 µM (inactive) | > 100 µM (inactive) | > 100 µM (inactive) | > 100 µM (inactive) | > 100 µM (inactive) | > 100 µM (inactive) | 4.62 µM (inactive) | > 100 µM (inactive) | > 100 µM (inactive)
COc1cc(/C=C/c2ccc(C)cc2)cc(OC)c1OC | 4.27 µM (inactive) | 3.8 µM (inactive) | 4.18 µM (inactive) | 3.85 µM (inactive) | 3.91 µM (inactive) | 4.7 µM (inactive) | 3.56 µM (inactive) | 2.48 µM (inactive) | 2.97 µM (inactive) | 4.82 µM (inactive) | 4.06 µM (inactive) | 4.29 µM (inactive) | 4.57 µM (inactive) | 5.11 µM (inactive) | 3.3 µM (inactive) | 2.25 µM (inactive) | 5 µM (inactive) | 4.1 µM (inactive) | 2.56 µM (inactive) | 2.67 µM (inactive)
COc1cc(C2C(Cl)C(=O)N2NC(=O)Cc2ccccc2)cc(Br)c1O (stereo not given) | > 100 µM (inactive) | 42.5 µM (inactive) | > 100 µM (inactive) | 69.8 µM (inactive) | 50.6 µM (inactive) | 94.8 µM (inactive) | > 100 µM (inactive) | 61 µM (inactive) | 48 µM (inactive) | > 100 µM (inactive) | 86.9 µM (inactive) | > 100 µM (inactive) | > 100 µM (inactive) | > 100 µM (inactive) | 71.4 µM (inactive) | 56 µM (inactive) | – | – | – | –
